Results on 30 molecules are retold here after ChEMBL document CHEMBL3526101, “Discovery and characterization of novel, potent, and selective cytochrome P450 2J2 inhibitors” (Drug Metab Dispos, 2013).

Targets include Cytochrome P450 2C19 (Homo sapiens, UniProt P33261); Cytochrome P450 2D6 (Homo sapiens, UniProt P10635); Cytochrome P450 2C9 (Homo sapiens, UniProt P11712); Cytochrome P450 3A4 (Homo sapiens, UniProt P08684).
The target of series [1] is T1, Cytochrome P450 2J2 (Homo sapiens, UniProt P51589).
T1 sequence (P51589 whole entry): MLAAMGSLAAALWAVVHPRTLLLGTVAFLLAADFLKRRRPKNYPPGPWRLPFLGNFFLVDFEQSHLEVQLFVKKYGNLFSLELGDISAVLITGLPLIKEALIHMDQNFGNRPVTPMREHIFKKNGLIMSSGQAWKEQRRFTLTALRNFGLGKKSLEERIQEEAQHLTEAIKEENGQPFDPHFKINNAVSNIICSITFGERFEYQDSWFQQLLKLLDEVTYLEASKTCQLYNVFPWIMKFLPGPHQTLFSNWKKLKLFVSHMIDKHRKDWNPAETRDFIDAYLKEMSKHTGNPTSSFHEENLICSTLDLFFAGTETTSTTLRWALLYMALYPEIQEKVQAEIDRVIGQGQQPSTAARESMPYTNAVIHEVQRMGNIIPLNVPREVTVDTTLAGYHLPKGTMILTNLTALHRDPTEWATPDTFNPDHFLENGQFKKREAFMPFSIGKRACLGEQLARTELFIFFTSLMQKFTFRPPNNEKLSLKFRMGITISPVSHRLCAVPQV

The target in the next series is T2, Cytochrome P450 1A2 (Homo sapiens, UniProt P05177).
T2 sequence (P05177 whole entry): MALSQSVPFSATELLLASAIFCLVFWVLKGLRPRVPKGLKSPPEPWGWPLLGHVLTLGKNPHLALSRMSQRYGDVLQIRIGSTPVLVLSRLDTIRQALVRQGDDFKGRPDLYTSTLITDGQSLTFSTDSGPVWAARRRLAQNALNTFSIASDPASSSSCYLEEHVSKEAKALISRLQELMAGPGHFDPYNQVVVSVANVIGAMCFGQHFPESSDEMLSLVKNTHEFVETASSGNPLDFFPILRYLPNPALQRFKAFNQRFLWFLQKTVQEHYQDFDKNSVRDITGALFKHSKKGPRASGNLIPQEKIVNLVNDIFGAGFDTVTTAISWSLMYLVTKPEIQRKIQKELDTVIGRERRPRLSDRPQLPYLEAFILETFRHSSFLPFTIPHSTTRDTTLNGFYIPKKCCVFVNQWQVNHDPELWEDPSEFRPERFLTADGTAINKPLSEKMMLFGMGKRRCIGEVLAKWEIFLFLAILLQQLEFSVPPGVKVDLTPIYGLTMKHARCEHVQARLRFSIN

Series [2] in a line: Metabolic stability in human liver microsomes at 1 uM after 30 mins by LC-MS/MS method. The class given is ADME. As to conditions: read-out: Stability. On the technique in general: Microsomes from liver hold many membrane-bound enzymes, among them those of drug oxidation.
Series [3] addresses T1, Cytochrome P450 2J2. The series can be described thus: Drug metabolism assessed as human recombinant CYP2J2-mediated intrinsic clearance assessed per pmol protein after 30 mins. It counts as ADME. The following applies: recombinant enzyme, 0.5 h.
The nature of series [4]: Tmax in human. The class given is ADME, organism-based. The following applies: in vivo.
Substrate in series [5]: COc1ccc(CCN2CCC(Nc3nc4ccccc4n3Cc3ccc(F)cc3)CC2)cc1
The series can be described thus: Activity of human recombinant CYP2J2 assessed as compound O-demethylation. It counts as ADME.

Chain of Cytochrome P450 2C9 (P11712 whole entry): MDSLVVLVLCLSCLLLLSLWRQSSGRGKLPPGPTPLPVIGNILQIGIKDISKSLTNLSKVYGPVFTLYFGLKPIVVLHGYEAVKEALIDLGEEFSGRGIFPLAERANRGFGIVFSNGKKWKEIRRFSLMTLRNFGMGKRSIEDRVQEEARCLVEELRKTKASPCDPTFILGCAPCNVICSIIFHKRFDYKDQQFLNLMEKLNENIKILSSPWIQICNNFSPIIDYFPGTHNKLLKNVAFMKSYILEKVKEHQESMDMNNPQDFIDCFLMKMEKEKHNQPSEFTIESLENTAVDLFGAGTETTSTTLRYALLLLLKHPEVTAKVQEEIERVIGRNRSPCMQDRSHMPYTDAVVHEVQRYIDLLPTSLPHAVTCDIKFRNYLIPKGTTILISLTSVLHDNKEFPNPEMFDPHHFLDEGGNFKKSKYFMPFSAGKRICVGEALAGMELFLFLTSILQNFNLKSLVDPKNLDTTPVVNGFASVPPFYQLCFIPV
Chain of Cytochrome P450 2C19 (P33261 whole entry): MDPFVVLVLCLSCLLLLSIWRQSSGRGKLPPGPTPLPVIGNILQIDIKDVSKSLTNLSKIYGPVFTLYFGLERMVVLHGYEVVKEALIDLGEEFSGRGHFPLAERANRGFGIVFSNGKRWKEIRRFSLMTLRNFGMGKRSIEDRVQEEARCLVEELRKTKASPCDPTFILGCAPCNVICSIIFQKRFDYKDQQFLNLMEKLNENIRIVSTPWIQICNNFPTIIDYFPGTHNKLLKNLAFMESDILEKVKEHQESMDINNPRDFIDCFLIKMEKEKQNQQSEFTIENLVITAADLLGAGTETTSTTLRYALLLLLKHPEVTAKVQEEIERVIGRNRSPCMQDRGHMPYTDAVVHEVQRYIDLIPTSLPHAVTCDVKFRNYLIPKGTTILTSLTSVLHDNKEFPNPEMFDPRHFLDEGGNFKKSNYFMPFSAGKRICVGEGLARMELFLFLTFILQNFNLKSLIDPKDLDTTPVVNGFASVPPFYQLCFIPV
Chain of Cytochrome P450 2D6 (P10635 whole entry): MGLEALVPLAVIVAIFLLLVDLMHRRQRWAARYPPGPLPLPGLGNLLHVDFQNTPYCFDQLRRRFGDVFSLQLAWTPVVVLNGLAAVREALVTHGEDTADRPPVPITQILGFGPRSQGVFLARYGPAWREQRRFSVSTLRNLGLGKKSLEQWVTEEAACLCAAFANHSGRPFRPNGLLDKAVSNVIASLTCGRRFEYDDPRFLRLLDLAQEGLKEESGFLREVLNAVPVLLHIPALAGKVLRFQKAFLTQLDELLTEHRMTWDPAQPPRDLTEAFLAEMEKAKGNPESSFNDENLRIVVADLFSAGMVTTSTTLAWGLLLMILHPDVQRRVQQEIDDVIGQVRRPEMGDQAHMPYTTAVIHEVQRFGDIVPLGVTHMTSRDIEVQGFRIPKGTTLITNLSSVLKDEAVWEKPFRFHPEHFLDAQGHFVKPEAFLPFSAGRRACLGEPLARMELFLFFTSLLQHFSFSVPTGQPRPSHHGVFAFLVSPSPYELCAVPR
Chain of Cytochrome P450 3A4 (P08684 whole entry): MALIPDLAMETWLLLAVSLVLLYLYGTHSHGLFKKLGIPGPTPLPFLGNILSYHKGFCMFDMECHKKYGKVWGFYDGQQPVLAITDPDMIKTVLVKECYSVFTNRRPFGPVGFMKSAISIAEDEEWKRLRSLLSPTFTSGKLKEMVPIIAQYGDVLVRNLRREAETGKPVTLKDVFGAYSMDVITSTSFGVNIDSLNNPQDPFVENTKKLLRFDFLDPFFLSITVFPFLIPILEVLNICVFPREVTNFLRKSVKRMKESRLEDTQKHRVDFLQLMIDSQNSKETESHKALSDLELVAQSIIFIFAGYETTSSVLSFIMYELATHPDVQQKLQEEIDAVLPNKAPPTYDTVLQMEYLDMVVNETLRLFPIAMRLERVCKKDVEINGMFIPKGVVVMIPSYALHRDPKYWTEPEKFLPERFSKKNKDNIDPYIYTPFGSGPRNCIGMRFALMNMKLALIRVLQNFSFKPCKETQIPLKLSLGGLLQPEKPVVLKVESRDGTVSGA

For the molecule `NC(=O)N1c2ccccc2C=Cc2ccccc21` [CARBAMAZEPINE], the half-maximal inhibitory concentration (IC50) (usually the concentration that gives 50% inhibition) against Cytochrome P450 2J2 [1] is more than 50 µM.
On to `C[C@]12C=CC(=O)C=C1CC[C@@H]1[C@@H]2[C@@H](O)C[C@@]2(C)[C@H]1CC[C@]2(O)C(=O)CO` [PREDNISOLONE], for which the IC50 on Cytochrome P450 2J2 [1] was more than 50 µM.
Turning to `COCC(=O)O[C@]1(CCN(C)CCCc2nc3ccccc3[nH]2)CCc2cc(F)ccc2[C@@H]1C(C)C` [MIBEFRADIL], the IC50 at Cytochrome P450 1A2 was more than 50 µM; on Cytochrome P450 2J2 [1] it was 2.14 µM; on Cytochrome P450 2C19, 1.32 µM; against Cytochrome P450 2D6 it was 0.84 µM; against Cytochrome P450 2C9, 28.4 µM.
Molecule `CC(=O)Nc1ccc(O)cc1` [ACETAMINOPHEN] displayed an IC50 at Cytochrome P450 2J2 [1] of more than 50 µM.
Take `COCCc1ccc(OCC(O)CNC(C)C)cc1` (stereo unspecified) [METOPROLOL]: the IC50 at Cytochrome P450 1A2 and at Cytochrome P450 3A4 was more than 50 µM in each case.
Molecule `COc1ccc2[nH]c([S+]([O-])Cc3ncc(C)c(OC)c3C)nc2c1` (stereo unspecified) [OMEPRAZOLE] registered an IC50 against Cytochrome P450 2J2 [1] of more than 50 µM.
For `COc1ccc2c(c1)[C@]13CCCC[C@@H]1[C@H](C2)N(C)CC3` [DEXTROMETHORPHAN], on Cytochrome P450 2J2 [1], the half-inhibitory concentration (IC50) was more than 50 µM.
Take `CCCc1nc2c(C)cc(-c3nc4ccccc4n3C)cc2n1Cc1ccc(-c2ccccc2C(=O)O)cc1`: the IC50 was more than 50 µM against Cytochrome P450 1A2, more than 50 µM against Cytochrome P450 2C19, more than 50 µM against Cytochrome P450 2D6 and 4.78 µM on Cytochrome P450 2C9. The remaining at 0.5 h, 1 µM in [2] is 97.7%.
The molecule `CCN(CC)Cc1cc(Nc2ccnc3cc(Cl)ccc23)ccc1O` [AMODIAQUINE] returned an IC50 against Cytochrome P450 3A4 of more than 50 µM.
Turning to `Nc1ccc(S(=O)(=O)Nc2ccnn2-c2ccccc2)cc1` [SULFAPHENAZOLE], the concentration for half-maximal inhibition (IC50) against Cytochrome P450 2J2 [1] is more than 50 µM.
On the same count and under the same terms, next, `CCCc1nc(C(C)(C)O)c(C(=O)O)n1Cc1ccc(-c2ccccc2-c2nnn[nH]2)cc1` [OLMESARTAN]: more than 50 µM.
Regarding `CN1CCC[C@@H]1Cc1c[nH]c2ccc(CCS(=O)(=O)c3ccccc3)cc12`, on Cytochrome P450 2J2 [1], the IC50 was more than 50 µM.
The same measure, in the same setting: next, `C=CCc1ccccc1OCC(O)CNC(C)C` (stereo unspecified) [ALPRENOLOL]: more than 50 µM.
As to `COc1ccc(CCN2CCC(Nc3nc4ccccc4n3Cc3ccc(F)cc3)CC2)cc1` [ASTEMIZOLE], the CL on Cytochrome P450 2J2 [3] came to 3.05 µL/min.
`CC(C)COCC(CN(Cc1ccccc1)c1ccccc1)N1CCCC1` (stereo unspecified) [BEPRIDIL]: the concentration for half-maximal inhibition (IC50) on Cytochrome P450 1A2 was more than 50 µM; against Cytochrome P450 2J2 [1] it was 11.5 µM; at Cytochrome P450 2D6 it was more than 50 µM.
As to `Cc1cccc(Nc2ccccc2C(=O)O)c1C` [MEFENAMIC ACID], on Cytochrome P450 2J2 [1], the IC50 is more than 50 µM.
For the molecule `Cc1c(OCC(F)(F)F)ccnc1C[S+]([O-])c1nc2ccccc2[nH]1` (stereo unspecified) [LANSOPRAZOLE], the IC50 at Cytochrome P450 2J2 [1] is more than 50 µM.
Consider `CCc1oc2ccccc2c1C(=O)c1cc(Br)c(O)c(Br)c1` [BENZBROMARONE], for which the IC50 was 33.1 µM against Cytochrome P450 1A2, 4.26 µM on Cytochrome P450 2J2 [1] and more than 50 µM at Cytochrome P450 2D6.
Turning to `CN[C@H]1CC[C@@H](c2ccc(Cl)c(Cl)c2)c2ccccc21` [SERTRALINE], the IC50 against Cytochrome P450 1A2 was 29.7 µM; against Cytochrome P450 2J2 [1] it was 18.5 µM; against Cytochrome P450 2C19 it was 22.5 µM; against Cytochrome P450 2D6, 2.88 µM; against Cytochrome P450 2C9, more than 50 µM.
Turning to `C[C@]12C=CC(=O)C=C1CC[C@H]1[C@@H]3C[C@@H](O)[C@](O)(C(=O)CO)[C@@]3(C)C[C@H](O)[C@@]12F` [TRIAMCINOLONE], the concentration for half-maximal inhibition (IC50) against Cytochrome P450 1A2 was more than 50 µM; at Cytochrome P450 2J2 [1] it was 9.47 µM; at Cytochrome P450 2D6, more than 50 µM; at Cytochrome P450 2C9 it was more than 50 µM.
With `CN1C(C(=O)Nc2ccccn2)=C(O)c2ccccc2S1(=O)=O` [PIROXICAM], the IC50 at Cytochrome P450 2J2 [1] is more than 50 µM.
On to `Fc1ccc(C(c2ccc(F)cc2)N2CCN(C/C=C/c3ccccc3)CC2)cc1` [FLUNARIZINE], for which the IC50 at Cytochrome P450 1A2, against Cytochrome P450 2C19 and against Cytochrome P450 2C9 was more than 50 µM in each case. In addition, in series [4], the Tmax – broadly, the time at which the peak concentration occurs – turned out to be 4 h. Further, the remaining at 0.5 h, 1 µM in series [2] was found to be 83.8%.
Molecule `COc1ccc(CCN(C)CCCC(C#N)(c2ccc(OC)c(OC)c2)C(C)C)cc1OC` (stereo unspecified) showed an IC50 at Cytochrome P450 1A2 of more than 50 µM.
On to `CN(C)CCCN1c2ccccc2CCc2ccccc21` [IMIPRAMINE], for which, on Cytochrome P450 2J2 [1], the IC50 was more than 50 µM.
For the molecule `CCn1cc(C(=O)O)c(=O)c2cc(F)c(N3CCNCC3)cc21` [NORFLOXACIN], the concentration for half-maximal inhibition (IC50) at Cytochrome P450 1A2 and on Cytochrome P450 2C9 was more than 50 µM in each case.
As to `CO/N=C(\C(=O)N[C@@H]1C(=O)N2C(C(=O)O)=C(CSc3nc(=O)c(=O)[nH]n3C)CS[C@H]12)c1csc(N)n1` [CEFTRIAXONE], at Cytochrome P450 2J2 [1], 27.4 µM corresponded to half-maximal inhibition (IC50).
On Cytochrome P450 2J2 [1], `CC1(C)S[C@@H]2[C@H](NC(=O)[C@H](N)c3ccc(O)cc3)C(=O)N2[C@H]1C(=O)O` [AMOXICILLIN] had an IC50 of more than 50 µM.
Consider `C[C@@H]1C[C@H]2[C@@H]3CCC4=CC(=O)C=C[C@]4(C)[C@@]3(F)[C@@H](O)C[C@]2(C)[C@@]1(O)C(=O)CO` [DEXAMETHASONE], for which the half-maximal inhibitory concentration (IC50) at Cytochrome P450 2J2 [1] is more than 50 µM.
For `CC[C@H]1OC(=O)[C@H](C)[C@@H](O[C@H]2C[C@@](C)(OC)[C@@H](O)[C@H](C)O2)[C@H](C)[C@@H](O[C@@H]2O[C@H](C)C[C@H](N(C)C)[C@H]2O)[C@](C)(O)C[C@@H](C)C(=O)[C@H](C)[C@@H](O)[C@]1(C)O` [ERYTHROMYCIN], the IC50 on Cytochrome P450 2J2 [1] was more than 50 µM.

B1: Cytochrome P450 2J2 (Homo sapiens) (protein)
chain: T1 sequence (P51589 whole entry)
For the molecule B1, in series [5], the Km (commonly the substrate concentration at which the rate is half of its maximum) is 0.09 µM and the Vmax (usually the rate approached at saturating substrate) worked out at 0.000339 µmol/min.
